Reference: patent US20070259856A1, “Method for Activating Trpv4 Channel Receptors by Agonists” (priority 2004, published 2007)

Tests used:
[1] = test system: MMP-13; experiment: IL-1 induced MMP-13 production in human chondrocytes; type: cell-based; details: IL-1 10 ng/mL, 24 hours
Description: (§1) Human chondrocytes were exposed to L-1 (10 ng/mL) to induce MMP-3 and MMP-13 production. Increased production of MMP-3 and MMP-13 was verified by both Northern blot (mRNA) and ELISA assay (protein). Cells were exposed to Formula IIb at concentrations ranging from 0.1 μM to 10 μM. […] TRPV4 channel receptor agonist inhibits IL-1-induced MMP-3 and MMP-13 production.

[2] = test system: aggrecanase; experiment: IL-1 induced aggrecanase production, chondrocyte-based aggrecanase peptide cleavage assay; type: cell-based, bovine; details: IL-1 3.0 ng/mL; for Aggrecanase Production (Mean ± SEM OD 450 nm): 24 hour
From the text: Aggrecanases (ADAMTSs), in conjunction with MMPs, degrade aggrecan, one of the major matrix components in articular cartilage. […] 2003; 48(1): 119-133].

[3] = test system: proteoglycan synthesis; experiment: Proteoglycan synthesis ([35S] incorporation), bovine articular chondrocytes in alginate beads; type: cell-based; details: IL-1 10 ng/mL
From the text: Although cartilage degradation is the hallmark of osteoarthritis, there is also a reduction in the ability of chondrocytes to resynthesize damaged matrix. It has been observed that cytokines, including IL-1, cause a significant reduction in collagen and proteoglycan (PG) synthesis. The effect on matrix synthesis, combined with the stimulation of matrix breakdown by these cytokines, leads to an overall net loss of cartilage matrix. The effects of TRPV4 channel receptor agonists on the synthesis of proteoglycans was measured by [^35S] incorporation in bovine articular chondrocytes embedded in alginate beads. IL-1 caused an inhibition of [^35S] incorporation into large molecular weight proteoglycan monomers, and Formula IIb caused a concentration-dependent reversal of the IL1-mediated inhibition of PG synthesis as shown in Table 10.

[4] = test system: bovine articular cartilage explants; experiment: IL-1 induced collagen degradation (hydroxyproline) in bovine articular cartilage explants; type: cell-based; details: 1 uM, IL-1 50 ng/ml, media from day 14-18
Description: IL-1 stimulates collagen degradation in bovine articular cartilage explants after extended (−2-3 weeks) exposure to IL-1. Collagen breakdown was evaluated by measuring the levels of hydroxyproline, a major component of hydrolyzed collagen fibrils, using a colorimetric assay that is understood in the art. Bovine articular cartilage was stimulated with IL-1 for 18 days, in the absence or presence of Formula Ib or Formula IId (both at 1 uM). Media was removed and replaced every 2-4 days with fresh IL-1 and compound through day 18. As has been shown previously, aggrecan degradation precedes collagen breakdown in IL-1-stimulated bovine cartilage explants. Once aggrecan depletion had been achieved by day 10, media were analyzed for collagen breakdown using the hydroxyproline assay.

[5] = test system: MMP-3; experiment: IL-1 induced MMP-3 production in human chondrocytes; type: cell-based; details: IL-1 10 ng/mL, 24 hours
Description: as §1

[6] = target: T1, ADAMTS-4 (aggrecanase-1) (Homo sapiens, UniProt O75173); experiment: Cleavage of the peptide substrate by soluble ADAMTS-4; type: biochemical
T1 sequence (O75173 213-837): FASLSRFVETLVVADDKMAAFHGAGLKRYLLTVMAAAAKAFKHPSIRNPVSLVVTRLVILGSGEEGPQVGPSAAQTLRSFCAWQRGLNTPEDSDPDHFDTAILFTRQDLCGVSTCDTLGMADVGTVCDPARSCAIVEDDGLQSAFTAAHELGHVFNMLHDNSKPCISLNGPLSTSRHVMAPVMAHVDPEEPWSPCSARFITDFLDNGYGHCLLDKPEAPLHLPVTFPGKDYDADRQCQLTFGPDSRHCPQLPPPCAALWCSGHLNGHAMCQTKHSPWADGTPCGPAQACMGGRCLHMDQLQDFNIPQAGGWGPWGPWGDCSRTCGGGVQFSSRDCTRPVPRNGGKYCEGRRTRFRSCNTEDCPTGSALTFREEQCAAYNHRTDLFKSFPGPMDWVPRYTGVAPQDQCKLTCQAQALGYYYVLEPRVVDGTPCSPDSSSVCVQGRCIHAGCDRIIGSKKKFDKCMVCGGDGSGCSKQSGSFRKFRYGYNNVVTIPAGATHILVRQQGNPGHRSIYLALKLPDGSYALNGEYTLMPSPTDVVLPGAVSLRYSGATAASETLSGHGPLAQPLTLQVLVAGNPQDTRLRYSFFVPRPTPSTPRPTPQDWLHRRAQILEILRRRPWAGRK

[7] = test system: nitric oxide; experiment: IL-1 induced nitric oxide production, bovine articular chondrocytes in alginate beads (Greiss reaction); type: cell-based; details: IL-1 10 ng/mL
Description: Nitric oxide (NO) is a free radical that is believed to contribute to the tissue destruction in osteoarthritis. While having direct effects on cartilage matrix damage, NO can also contribute by activating latent proteases which leads to increased tissue destruction. To evaluate the effect of TRPV4 channel receptor agonists on NO production, bovine articular chondrocytes were embedded in alginate beads as described in Hauselmann, et al. (1992) Matrix 12: 116-129, and NO levels were determined in the conditioned media by Greiss reaction (Badger A M, et al. (1998) J. Immunol. 161: 467-473), following stimulation by IL-1, in the absence or presence of TRPV4 channel receptor agonist.

With `CC(C)C[C@H](NC(=O)c1cc2ccccc2s1)C(=O)N[C@@H]1CCCN(S(=O)(=O)c2ccc(F)cc2)CC1=O` [Formula IIb, N-{(1S)-1-[({(4R)-1-[(4-fluorophenyl)sulfonyl]-3-oxohexahydro-1H-azepin-4-yl}amino)carbonyl]-3-methylbutyl}-1-benzothiophene-2-carboxamide] the “MMP-13 mRNA expression Mean” value ([1]; 0.1 μM) was 0.89 Fraction of IL-1, the “MMP-13 mRNA expression Mean” value ([1]; 0.3 μM) was 0.87 Fraction of IL-1 and the “MMP-13 mRNA expression Mean” value ([1]; 1.0 μM) was 0.79 Fraction of IL-1. The “MMP-13 mRNA expression Mean” value ([1]; 3.0 μM) was 0.29 Fraction of IL-1, the “MMP-13 mRNA expression Mean” value ([1]; 10.00 μM) was 0.09 Fraction of IL-1 and the “Aggrecanase Production (Mean ± SEM OD 450 nm)” value ([2]; 0.03 μM) was 2.018 ± 0.044 OD 450 nm. The “Aggrecanase Production (Mean ± SEM OD 450 nm)” value ([2]; 0.10 μM) was 1.669 ± 0.029 OD 450 nm, the “Aggrecanase Production (Mean ± SEM OD 450 nm)” value ([2]; 0.30 μM) was 1.139 ± 0.032 OD 450 nm and the “Aggrecanase Production (Mean ± SEM OD 450 nm)” value ([2]; 1.00 μM) was 0.851 ± 0.024 OD 450 nm. The inhibition at 0.03 µM ([2]; Bos taurus, 0.03 μM) was 11%, the inhibition at 0.1 µM ([2]; Bos taurus, 0.10 μM) was 33% and the inhibition at 0.3 µM ([2]; Bos taurus, 0.30 μM) was 65%. The inhibition at 1 µM ([2]; Bos taurus, 1.00 μM) was 83%, the “% IL-1 reversal” value ([3]; 0.3 uM) was 3% and the “PG synthesis Mean ± SEM” value ([3]; 0.3 uM) was 878 ± 48 cpm/bead. For the same molecule, the “% IL-1 reversal” value ([3]; 1.0 uM) was 15%, the “PG synthesis Mean ± SEM” value ([3]; 1.0 uM) was 1066 ± 69 cpm/bead and the “% IL-1 reversal” value ([3]; 3.0 uM) was 44%. The “PG synthesis Mean ± SEM” value ([3]; 3.0 uM) was 1530 ± 73 cpm/bead, the “Hydroxyproline Mean ± SEM” value [4] was 16 ± 6 µg and the inhibition at 1 µM ([4]; Bos taurus, 336 h) was 81%. The “MMP-3 mRNA expression Mean” value ([5]; 0.1 μM) was 0.92 Fraction of IL-1, the “MMP-3 mRNA expression Mean” value ([5]; 0.3 μM) was 0.91 Fraction of IL-1 and the “MMP-3 mRNA expression Mean” value ([5]; 1.0 μM) was 0.88 Fraction of IL-1. The “MMP-3 mRNA expression Mean” value ([5]; 3.0 μM) was 0.68 Fraction of IL-1, the “MMP-3 mRNA expression Mean” value ([5]; 10.00 μM) was 0.43 Fraction of IL-1 and the “effect on cleavage of the peptide substrate by soluble ADAMTS-4” value [6] was “no effect”. The “NO levels Mean ± SEM” value ([7]; 0.3 μM) was 17 ± 1 µM, the “NO levels Mean ± SEM” value ([7]; 1.0 μM) was 6 ± 1 µM and the “NO levels Mean ± SEM” value ([7]; 3.0 μM) was 2 ± 0 µM. The inhibition at 0.3 µM ([7]; Bos taurus, Chondrocyte, 0.3 μM, read-out: % inhibition of NO) was 38%, the inhibition at 1 µM ([7]; Bos taurus, Chondrocyte, 1.0 μM, read-out: % inhibition of NO) was 81% and the inhibition at 3 µM ([7]; Bos taurus, Chondrocyte, 3.0 μM, read-out: % inhibition of NO) was 96%.
